Tests used:
Mammalian SM synthase [1] = settings: Luberto and Hannun, 1998; cited from earlier work
human SMS2 = molecular target: T1, human SMS2 (Homo sapiens, UniProt Q8NHU3); assay: SM synthase assay on lysates of SMS2-expressing yeast cells; format: biochemical
T1 construct: members for which full-length cDNAs could be obtained were cloned into a yeast multicopy, GALL promotor plasmid; His tag (from vector pYES2.1/V5-His-TOPO) (C); made in house; host or cells: Saccharomyces cerevisiae strain IAY11 (unpurified post-nuclear lysate)
T1 sequence (Q8NHU3 1-365): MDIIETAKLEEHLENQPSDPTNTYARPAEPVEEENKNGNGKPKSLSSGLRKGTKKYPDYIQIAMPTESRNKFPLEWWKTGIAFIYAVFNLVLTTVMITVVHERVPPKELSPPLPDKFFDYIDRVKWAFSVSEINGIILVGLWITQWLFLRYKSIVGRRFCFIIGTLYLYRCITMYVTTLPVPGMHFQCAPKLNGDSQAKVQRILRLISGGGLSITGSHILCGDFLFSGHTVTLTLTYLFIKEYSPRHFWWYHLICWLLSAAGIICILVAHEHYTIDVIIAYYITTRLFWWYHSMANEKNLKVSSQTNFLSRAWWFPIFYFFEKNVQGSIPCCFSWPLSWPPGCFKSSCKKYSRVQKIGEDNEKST
Protocol: (§1) CSS-expressing yeast cells were lysed at 100 OD600/ml by bead bashing at 4° C. in RB1 buffer (120 mM K-glutamate, 15 mM KCl, 5 mM NaCl, 2 mM MnCl2, 2 mM MgCl2, 20 mM Hepes-KOH, pH 7.2) containing freshly added protease inhibitors (Holthuis et al., (1998).
(§2) Lysates were centrifuged at 700 g for 10 min at 4° C. and supernatants (0.25 ml per reaction) preincubated with NEM (1 mM) for 10 min at 37° C. The reaction was initiated by addition of 5 nmol of NBD-Cer in 0.1 ml RB1 buffer and incubation continued for 15 min. Lipids were extracted by addition of 1.7 ml chloroform:methanol (1:2.2), dried under N2 and subjected to butanol/water partitioning. Lipids recovered from the butanol phase were separated by one-dimensional TLC for 30 min in solvent I: chloroform/methanol/4.2 M NH4OH (9:7:3, v/v), followed by 30 min in solvent II: chloroform/methanol/acetic acid (45:30:7, v/v). Fluorescent images were recorded on a STORM 860 Imaging Analysis System (Molecular Dynamics, Sunnyvale, Calif.) and analysed with ImageQuant software.

human SMS1 = molecular target: T2, human SMS1 (Homo sapiens, UniProt Q86VZ5); assay: SM synthase assay on lysates of SMS1-expressing yeast cells; format: biochemical; design: extent of inhibition of SMS1-mediated SM synthesis: dose or concentration left out as unconfirmed
T2 construct: members for which full-length cDNAs could be obtained were cloned into a yeast multicopy, GALL promotor plasmid; His tag (from vector pYES2.1/V5-His-TOPO) (C); made in house; host or cells: Saccharomyces cerevisiae strain IAY11 (unpurified post-nuclear lysate)
T2 sequence (Q86VZ5 1-413): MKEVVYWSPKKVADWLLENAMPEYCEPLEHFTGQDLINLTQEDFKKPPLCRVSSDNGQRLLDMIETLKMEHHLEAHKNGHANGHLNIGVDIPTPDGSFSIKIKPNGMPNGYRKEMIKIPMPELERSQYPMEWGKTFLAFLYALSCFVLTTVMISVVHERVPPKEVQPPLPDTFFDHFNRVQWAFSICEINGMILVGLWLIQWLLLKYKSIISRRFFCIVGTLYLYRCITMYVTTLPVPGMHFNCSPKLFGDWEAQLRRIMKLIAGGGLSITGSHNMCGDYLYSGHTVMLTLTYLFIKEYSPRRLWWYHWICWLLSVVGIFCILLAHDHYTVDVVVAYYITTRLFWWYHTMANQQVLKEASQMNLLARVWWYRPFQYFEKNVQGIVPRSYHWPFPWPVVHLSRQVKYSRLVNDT
Protocol: as §1, §2

mammalian SM synthase [2] = assay: NBD-ceramide incubated with HeLa cell lysates, TLC of reaction products; format: biochemical, human; settings: NEM 1 mM, 30 min at 37° C.
Protocol: (§3) FIG. 3. NEM inhibits yeast-associated SMase but not mammalian SM synthase. (A) TLC separation of reaction products generated when NBD-SM (1.8 μM) was incubated with lysates of exponentially grown yeast cells (20 OD600 cells) in the presence (+) or absence (−) of N-ethylmaleimide (NEM; 1 mM). Reactions were in 0.35 ml RB1 buffer containing 1 μg/ml of IPC synthase inhibitor (aureobasidin A) and incubated for 30 min at 37° C. (B) TLC separation of reaction products generated when NBD-ceramide (NBD-Cer; […]) was incubated with lysates of HeLa cells (1/1: 2×10^6 cells; 1/4: 0.5×10^6 cells) in the presence (+) or absence (−) of NEM (1 mM). Reactions were in 0.35 ml PNS buffer, and incubated for 30 min at 37° C. Lipid extraction and TLC analysis were as described in Materials and methods.

yeast-associated SMase = assay: NBD-SM incubated with yeast cell lysates, TLC of reaction products; format: biochemical; settings: NEM 1 mM, NBD-SM 1.8 μM, 30 min at 37° C.
Protocol: as §3

| SMILES | sensitivity of mammalian SM synthase (Mammalian SM synthase [1]) | inhibition of SM synthesis (in words) (human SMS2) | sensitivity of SMS2 to the drug relative to SMS1 (human SMS2) | inhibition of SM synthesis (in words) (human SMS1) | extent of inhibition of SMS1-mediated SM synthesis (human SMS1; D609) | effect on mammalian SM synthase (mammalian SM synthase [2]) | effect on yeast-associated SMases (yeast-associated SMase) |
| --- | --- | --- | --- | --- | --- | --- | --- |
| S=C([S-])OC1CC2CC1C1CCCC21.[K+] (stereo not shown) [D609, O-tricyclo[5.2.1.0^2,6]dec-9-yl dithiocarbonate potassium salt] | sensitive | inhibited SM synthesis in a dose-dependent manner | two-fold less sensitive | inhibited SM synthesis in a dose-dependent manner | 50% | – | – |
| CCN1C(=O)C=CC1=O [NEM, N-ethylmaleimide] | – | – | – | – | – | does not affect | potent inhibitor |
